PubChem BioAssay AID652002 (Sanford-Burnham Center for Chemical Genomics, 2013)
Activity calls are given as the source filed them. The rule behind the calls is not given here.

Experiments:
[1] = TRAIL sensitizers in caspase-8 expressing neuroblastoma cells, dose response, NB7 cells plus caspase-8, luminescence, panel (AID 652002); conditions: NB7 neuroblastoma +caspase-8, no TRAIL, compound-alone cytotoxicity counter-screen, luminescence viability, NB7+Caspase-8
[2] = target: NB7+Caspase-8; assay: as above; conditions: NB7 neuroblastoma +caspase-8, TRAIL sensitization, luminescence viability, with TRAIL
[3] = target: Tumor necrosis factor receptor superfamily member 10B (Homo sapiens) (UniProt O14763); assay: as above; conditions: NB7 neuroblastoma +caspase-8, TRAIL sensitization, luminescence viability; NB7+Caspase-8; with TRAIL, mean of runs
[4] = run 1, single replicate panel EC50
[5] = run 2, single replicate panel EC50

Sequence of Tumor necrosis factor receptor superfamily member 10B (Homo sapiens) (O14763 whole entry, looked up): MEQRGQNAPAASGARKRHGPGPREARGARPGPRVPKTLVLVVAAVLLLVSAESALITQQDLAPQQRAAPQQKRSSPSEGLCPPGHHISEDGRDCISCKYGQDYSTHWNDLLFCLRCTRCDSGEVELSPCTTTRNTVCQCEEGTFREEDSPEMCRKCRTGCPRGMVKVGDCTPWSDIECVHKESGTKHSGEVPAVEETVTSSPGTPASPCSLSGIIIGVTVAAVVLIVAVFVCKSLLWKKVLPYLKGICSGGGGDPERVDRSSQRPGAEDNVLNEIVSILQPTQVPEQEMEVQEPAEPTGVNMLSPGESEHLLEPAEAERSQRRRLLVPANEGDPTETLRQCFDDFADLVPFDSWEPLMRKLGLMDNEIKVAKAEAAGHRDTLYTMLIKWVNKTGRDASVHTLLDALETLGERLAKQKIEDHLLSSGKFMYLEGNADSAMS

Compound: CCCCc1nc(NCCN)c(C#N)c2c1CSC(C)(C)C2
- EC50 ([1]; mean of runs): > 12.5 µM (inactive)
- EC50 [1, 4]: > 12.5 µM
- EC50 [1, 5]: > 12.5 µM
- EC50 [2, 4]: > 12.5 µM
- EC50 [2, 5]: > 12.5 µM
- EC50 [3]: > 12.5 µM (inactive)

Compound: COC(=O)c1ccc(/C=C/c2nc3ccccc3c(=O)[nH]2)cc1
- EC50 ([1]; mean of runs): > 12.5 µM (inactive)
- EC50 [1, 4]: > 12.5 µM
- EC50 [1, 5]: > 12.5 µM
- EC50 [2, 4]: > 12.5 µM
- EC50 [2, 5]: > 12.5 µM
- EC50 [3]: > 12.5 µM (inactive)

Compound: COc1cccc(NC(=O)Nc2nccc(C)n2)c1
- EC50 ([1]; mean of runs): > 12.5 µM (inactive)
- EC50 [1, 4]: > 12.5 µM
- EC50 [1, 5]: > 12.5 µM
- EC50 [2, 4]: > 12.5 µM
- EC50 [2, 5]: 4.33 µM
- EC50 [3]: inactive

Compound: COc1ccc(OCC(=O)N/N=C/C=C/c2ccccc2)cc1
- EC50 ([1]; mean of runs): inactive
- EC50 [1, 4]: 10.3 µM
- EC50 [1, 5]: > 12.5 µM
- EC50 [2, 4]: > 12.5 µM
- EC50 [2, 5]: 1.96 µM
- EC50 [3]: inactive

Compound: C(=C\c1ccco1)/c1nc2ccccc2[nH]1
- EC50 ([1]; mean of runs): > 12.5 µM (inactive)
- EC50 [1, 4]: > 12.5 µM
- EC50 [1, 5]: > 12.5 µM
- EC50 [2, 4]: > 12.5 µM
- EC50 [2, 5]: > 12.5 µM
- EC50 [3]: > 12.5 µM (inactive)

Compound: C#CC(=O)CC1(CN(Cc2ccccc2)C(=O)OC(C)(C)C)CCCCC1
- EC50 ([1]; mean of runs): inactive
- EC50 [1, 4]: 7.26 µM
- EC50 [1, 5]: 1.52 µM
- EC50 [2, 4]: 3.12 µM
- EC50 [2, 5]: 7.51 µM
- EC50 [3]: inactive

Compound: O=c1[nH]c(=S)[nH]c2c1C(c1ccc(Cl)c(Cl)c1)OC(CCc1ccccc1)C2 (stereo not given)
- EC50 ([1]; mean of runs): > 12.5 µM (inactive)
- EC50 [1, 4]: > 12.5 µM
- EC50 [1, 5]: > 12.5 µM
- EC50 [2, 4]: > 12.5 µM
- EC50 [2, 5]: > 12.5 µM
- EC50 [3]: > 12.5 µM (inactive)

Compound: CC1(Cc2ccc(OC(F)(F)F)cc2)C(=O)Nc2ccc(S(=O)(=O)NC3CCCCC3)cc21 (stereo not given)
- EC50 ([1]; mean of runs): inactive
- EC50 [1, 4]: > 12.5 µM
- EC50 [1, 5]: 12.3 µM
- EC50 [2, 4]: > 12.5 µM
- EC50 [2, 5]: > 12.5 µM
- EC50 [3]: > 12.5 µM (inactive)

Compound: COc1cccc(NC(=O)c2ccc3c(c2)OCO3)c1
- EC50 ([1]; mean of runs): inactive
- EC50 [1, 4]: 8.96 µM
- EC50 [1, 5]: 11.9 µM
- EC50 [2, 4]: 7.39 µM
- EC50 [2, 5]: 11 µM
- EC50 [3]: inactive

Compound: CCOc1ccc(-c2nnc(-c3ccccc3)o2)cc1
- EC50 ([1]; mean of runs): > 12.5 µM (inactive)
- EC50 [1, 4]: > 12.5 µM
- EC50 [1, 5]: > 12.5 µM
- EC50 [2, 4]: > 12.5 µM
- EC50 [2, 5]: 10.7 µM
- EC50 [3]: inactive

Compound: Cc1c(P(=S)(c2ccccc2)c2ccccc2)[n+]2ccccc2n1CCc1ccccc1
- EC50 ([1]; mean of runs): > 12.5 µM (inactive)
- EC50 [1, 4]: > 12.5 µM
- EC50 [1, 5]: > 12.5 µM
- EC50 [2, 4]: > 12.5 µM
- EC50 [2, 5]: > 12.5 µM
- EC50 [3]: > 12.5 µM (inactive)

Compound: NNC(=O)C1CCCn2c1nc1sc3c(c1c2=O)CCCC3 (stereo not given)
- EC50 ([1]; mean of runs): > 12.5 µM (inactive)
- EC50 [1, 4]: > 12.5 µM
- EC50 [1, 5]: > 12.5 µM
- EC50 [2, 4]: > 12.5 µM
- EC50 [2, 5]: > 12.5 µM
- EC50 [3]: > 12.5 µM (inactive)

Compound: O=C(Oc1c(CN2CCOCC2)cc(Cl)c2cccnc12)c1cccs1
- EC50 ([1]; mean of runs): > 12.5 µM (inactive)
- EC50 [1, 4]: > 12.5 µM
- EC50 [1, 5]: > 12.5 µM
- EC50 [2, 4]: > 12.5 µM
- EC50 [2, 5]: 6.75 µM
- EC50 [3]: inactive

Compound: CC(C)(C)OC(=O)NCc1ccc(NC(=O)c2nc[nH]c2C(=O)N[C@@H](Cc2ccccc2)C(=O)OCc2ccccc2)cc1
- EC50 ([1]; mean of runs): > 12.5 µM (inactive)
- EC50 [1, 4]: > 12.5 µM
- EC50 [1, 5]: > 12.5 µM
- EC50 [2, 4]: > 12.5 µM
- EC50 [2, 5]: > 12.5 µM
- EC50 [3]: > 12.5 µM (inactive)

Compound: COc1ccc(NS(=O)(=O)c2cccc(C(=O)N/N=C/c3c(F)c(F)c(F)c(F)c3F)c2)cc1
- EC50 ([1]; mean of runs): inactive
- EC50 [1, 4]: > 12.5 µM
- EC50 [1, 5]: 11.4 µM
- EC50 [2, 4]: > 12.5 µM
- EC50 [2, 5]: > 12.5 µM
- EC50 [3]: > 12.5 µM (inactive)

Compound: CCN(CC)S(=O)(=O)c1ccc(C(=O)OCC(=O)Nc2ccc(-c3nc4ccc(C)cc4s3)cc2)cc1
- EC50 ([1]; mean of runs): > 12.5 µM (inactive)
- EC50 [1, 4]: > 12.5 µM
- EC50 [1, 5]: > 12.5 µM
- EC50 [2, 4]: > 12.5 µM
- EC50 [2, 5]: > 12.5 µM
- EC50 [3]: > 12.5 µM (inactive)

Compound: Cc1nn(-c2ccccc2)c2nc(N)c(C#N)c(-c3ccc(F)cc3)c12
- EC50 ([1]; mean of runs): inactive
- EC50 [1, 4]: > 12.5 µM
- EC50 [1, 5]: 11.5 µM
- EC50 [2, 4]: > 12.5 µM
- EC50 [2, 5]: > 12.5 µM
- EC50 [3]: > 12.5 µM (inactive)

Compound: O=C(Nc1cnc2ccccn2c1=O)c1ccc(Cl)cc1Cl
- EC50 ([1]; mean of runs): > 12.5 µM (inactive)
- EC50 [1, 4]: > 12.5 µM
- EC50 [1, 5]: > 12.5 µM
- EC50 [2, 4]: > 12.5 µM
- EC50 [2, 5]: > 12.5 µM
- EC50 [3]: > 12.5 µM (inactive)

Compound: CN(C)CCCN(C(=O)c1ccc(S(=O)(=O)N2CCCc3ccccc32)cc1)c1nc2ccc(F)cc2s1
- EC50 ([1]; mean of runs): > 12.5 µM (inactive)
- EC50 [1, 4]: > 12.5 µM
- EC50 [1, 5]: > 12.5 µM
- EC50 [2, 4]: > 12.5 µM
- EC50 [2, 5]: > 12.5 µM
- EC50 [3]: > 12.5 µM (inactive)

Compound: O=c1cc(-c2ccccc2)nc2cc(-c3ccc(F)cc3)[nH]n12
- EC50 ([1]; mean of runs): > 12.5 µM (inactive)
- EC50 [1, 4]: > 12.5 µM
- EC50 [1, 5]: > 12.5 µM
- EC50 [2, 4]: > 12.5 µM
- EC50 [2, 5]: > 12.5 µM
- EC50 [3]: > 12.5 µM (inactive)
